Assay results published in US20040038424A1, “Formaldehyde-ammonium salt complexes for the stabilization of blood cells” (priority 2002, published 2004).

Legend:
[1] = system: platelet granule marker CD62p on platelets; test: Percentage of CD62p positive platelets by flow cytometry (platelet activation state); assay type: cell-based, human; conditions: dibasic versus tribasic ammonium citrate in the reagent, FIGS. 11A and 11B
Source text: When used to stabilize blood samples or fractions or other tissues containing platelets, the composition and methods of this invention preserve platelet activity in the state of activation substantially the same as that existing at the time of blood or platelet withdrawal from the blood or platelet donor. By “state of activation of the platelets” or “Activation Potential” as used herein is meant the percentage of platelets expressing the CD62p antigen, i.e., the percentage of platelets that bind CD62p fluorescently-labeled antibody as performed by flow cytometry, or CD62p positive platelets in the sample. The CD62p antigen represents a glycoprotein antigen that is unique to megakaryocyte, platelet, and endothelial cell secretory granules. […]
Expression of CD62p is measured typically by flow cytometric analysis using dual or multi-parameter analyses, and particularly by staining the samples with labeled ligands that bind to CD62p on the platelets in the sample. The ligands are conventionally monoclonal antibodies to the antigen to be measured. […]
The same protocol was conducted on activated blood samples. […] PAP was assessed using 2 μl of a 1/100 dilution (0.0324 mM) of stock PMA is added with 10 μl antibodies and 100 μl of diluent (PBS) and 2.5 μl of blood and incubated for 15 minutes (final concentration of 11.58 μM). […]

cells = test: Cellular stabilization (several experiments); assay type: cell-based

SMILES	stabilization of CD62p by ammonium salt type [1]	effectiveness in cellular stabilization (cells)
N.N.O=C(O)CC(O)(CC(=O)O)C(=O)O [dibasic ammonium citrate]	better stabilization	
C1N2CN3CN1CN(C2)C3 [hexamethylenetetramine]		not effective
